Experimental data taken from PubChem BioAssay AID1963422 (Molecular Pharmacology Branch, DTP, NCI, 2024).

Test system: 463943-066-T-J2-PDC complex spheroid growth
Test: Anticancer human tumor 463943-066-T-J2-PDC patient-derived colon adenocarcinoma cell line growth inhibition [Asc]
Conditions: for IC50: curve of first compound; for viability, T/C: stronger effect = lower value
Procedure: Multicellular complex tumor spheroid response to apoptosis pathway targeting inhibitors Alrizomadlin, Pelcitoclax, and Dasminapant in combination with a variety of drugs and investigational agents in selected tumor cell lines
The MDM2 inhibitor alrizomadlin, the Bcl-2/Bcl-xL inhibitor pelcitoclax, and the IAPs inhibitor dasminapant were evaluated both individually and in combination with standard of care and investigational anticancer small molecules within a complex spheroid model of solid tumors. . Complex spheroids include a stromal component modeled by human endothelial cells (HUVEC) and fibroblasts modeled by human mesenchymal stem cells (MSCs). The concentration ranges selected for each drug and investigational agent were based upon clinically achievable concentrations if the clinical Cmax of the agent was known.
Compounds. The drugs and investigational agents: alrizomadlin (APG-115; NSC831270), pelcitoclax (APG-1252; NSC835773), dasminapant (APG-1387;NSC834197), TAK-243 (NSC785004), copanlisib (NSC809693), olaparib (NSC753686), talazoparib (NSC767125), cobimetinib (NSC 768068), eltanexor (KPT-8602, NSC 794443), abemaciclib (NSC 768073), sotorasib (NSC818433), adagrasib (NSC 831453), MRTX-1133 (NSC 836407), Iadademestat (ORY1001, NSC 806812), and RMC-4630 (NSC839698), were obtained from the NCI Developmental Therapeutics Program Chemical Repository. The FDA-approved anticancer drug set is available from the Developmental Therapeutics Program at https://dtp.cancer.gov/organization/dscb/obtaining/available plates.htm. […] The stock solutions were prepared in dimethyl sulfoxide (DMSO, Sigma-Aldrich, St. Louis, MO, cat. D2650) at 800-fold the tested concentration and stored at -70 degrees C prior to their use. All drugs and investigational agents were tested over a range starting from a high concentration at or near the clinical Cmax and decreasing in half-log increments. If the clinical Cmax for an agent had not been determined, the highest concentration tested was 10 microM.
The patient-derived cancer (PDC) cell lines include five colon adenocarcinomas: 186277-243-T-J2-PDC, 616215-338-R-J1-PDC, 439559-082-T-J2-PDC, 463943-066-T-J2-PDC, and 519858-162-T-J1-PDC; three pancreatic carcinomas: 323965-272-R-J2-PDC, 521955-158-R6-J3-PDC, and 521955-158-R2-J5-PDC; two uterine sarcomas: 327498-152-R-J2-PDC and 993429-296-R-J1-PDC; two rhabdomyosarcomas: 755483-174-R-J1-PDC and 772245-204-R-J1-PDC; two soft tissue sarcomas: 126254-015-R-J1-PDC and 494315-158-R-J1-PDC; two malignant fibrous histiocytomas: 317291-083-R-J1-PDC and 596521-263-R-J1-PDC; two breast carcinomas: 171881-019-R-J1-PDC and 885512-296-R-J2-PDC; and one ovarian carcinoma: 6556581-035-R-J-PDC were obtained from the NCI PDMR, (https://pdmr.cancer.gov). The established cell lines HSSY-2 synovial sarcoma (RRID:CVCL 8719), SYO-1 synovial sarcoma (RRID:CVCL_7146), MPNST malignant peripheral neural sheath tumor were obtained from the Sloan Kettering Institute. The following established cell lines were purchased from the American Type Culture Collection (ATCC, Manassas, VA), Sor the received from the NCI repository:, PANC-1 pancreatic carcinoma (CRL-1469, RRID:CVCL_0480), OVCAR-5 ovarian carcinoma (RRID:CVCL_1628), OVCAR-8 ovarian carcinoma (RRID:CVCL_1629), , MCF-7 breast carcinoma (CRL-12584, RRID:CVCL_0031), MDA-MB-231 breast carcinoma (CRL-12532, RRID:CVCL_0062), NCI-H1876 small cell lung carcinoma (CRL-5902, RRID:CVCL_1503), NCI-H510A small cell lung carcinoma (HTB-184, RRID:CVCL_1565), NCI-H1417 (CRL-5869, RRID:CVCL_1469), and NCI-H196 small cell lung carcinoma (CRL-5823, RRID:CVCL_1509). Dr. Peter Houghton (Greehey Children's Cancer Research Institute, University of Texas Health Science Center, San Antonio, TX) provided Rh-18 rhabdomyosarcoma (RRID:CVCL_1659). Pooled donor human umbilical vein endothelial cells (HUVEC, Lonza, cat. CC-2519) and human mesenchymal stem cells (hMSC, Lonza, cat. PT-2501) were purchased from Lonza (Walkersville, MD).
Cell Culture. […]
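Also: compound exposure lasted 7 days.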
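For viability, T/C in this document: 100% = DMSO vehicle control wells.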

C#Cc1c(F)ccc2cc(O)cc(-c3ncc4c(N5CC6CCC(C5)N6)nc(OCC56CCCN5CC(F)C6)nc4c3F)c12 (configuration not stated) + Cc1c(S(C)(=O)=O)c(-c2cc(F)cc(N3CCN(c4ccc(NS(=O)(=O)c5ccc(NC(CCN6CCC(C(=O)OCCCP(=O)(O)O)CC6)CSc6ccccc6)c(S(=O)(=O)C(F)(F)F)c5)cc4)CC3)c2)c(-c2ccc(Cl)cc2)n1C(C)C
IC50 (second compound 0.0316 µM): > 10 µM | IC50 (second compound 0.1 µM): > 10 µM | IC50 (second compound 0.316 µM): > 10 µM | IC50 (second compound 1 µM): > 10 µM | IC50 (second compound 3.16 µM): > 10 µM | IC50 (second compound 10 µM): < 0.0316 µM | viability, T/C (second compound 0.0316 µM, first compound 0.0316 µM): 96.3% | viability, T/C (second compound 0.0316 µM, first compound 0.1 µM): 93.3% | viability, T/C (second compound 0.0316 µM, first compound 0.316 µM): 101% | viability, T/C (second compound 0.0316 µM, first compound 1 µM): 102% | viability, T/C (second compound 0.0316 µM, first compound 3.16 µM): 103% | viability, T/C (second compound 0.0316 µM, first compound 10 µM): 97.5% | viability, T/C (second compound 0.1 µM, first compound 0.0316 µM): 101% | viability, T/C (second compound 0.1 µM, first compound 0.1 µM): 97.1% | viability, T/C (second compound 0.1 µM, first compound 0.316 µM): 101% | viability, T/C (second compound 0.1 µM, first compound 1 µM): 94.1% | viability, T/C (second compound 0.1 µM, first compound 3.16 µM): 98% | viability, T/C (second compound 0.1 µM, first compound 10 µM): 82.1% | viability, T/C (second compound 0.316 µM, first compound 0.0316 µM): 93.4% | viability, T/C (second compound 0.316 µM, first compound 0.1 µM): 92.8% | viability, T/C (second compound 0.316 µM, first compound 0.316 µM): 88.4% | viability, T/C (second compound 0.316 µM, first compound 1 µM): 93.1% | viability, T/C (second compound 0.316 µM, first compound 3.16 µM): 97.2% | viability, T/C (second compound 0.316 µM, first compound 10 µM): 73.4% | viability, T/C (second compound 1 µM, first compound 0.0316 µM): 74.5% | viability, T/C (second compound 1 µM, first compound 0.1 µM): 76.5% | viability, T/C (second compound 1 µM, first compound 0.316 µM): 80.5% | viability, T/C (second compound 1 µM, first compound 1 µM): 80.6% | viability, T/C (second compound 1 µM, first compound 3.16 µM): 77.7% | viability, T/C (second compound 1 µM, first compound 10 µM): 72.3% | viability, T/C (second compound 3.16 µM, first compound 0.0316 µM): 65.3% | viability, T/C (second compound 3.16 µM, first compound 0.1 µM): 64.3% | viability, T/C (second compound 3.16 µM, first compound 0.316 µM): 63.3% | viability, T/C (second compound 3.16 µM, first compound 1 µM): 62.1% | viability, T/C (second compound 3.16 µM, first compound 3.16 µM): 65.9% | viability, T/C (second compound 3.16 µM, first compound 10 µM): 61.3% | viability, T/C (second compound 10 µM, first compound 0.0316 µM): 48.9% | viability, T/C (second compound 10 µM, first compound 0.1 µM): 47.7% | viability, T/C (second compound 10 µM, first compound 0.316 µM): 50.2% | viability, T/C (second compound 10 µM, first compound 1 µM): 51.2% | viability, T/C (second compound 10 µM, first compound 3.16 µM): 51.2% | viability, T/C (second compound 10 µM, first compound 10 µM): 43.9%
